Experimental findings from US7423020B2, “Treatment of mood disorders by administration of SMR1” (Institut Pasteur, priority 2001, dated 2008) are described below.

One assay concerns male Wistar/AF EOPS rats. As to the kind of experiment: Behavioral despair test (forced swimming). It counts as in vivo, rat. Also noted: change of period of immobility, retest compared with test: dose or concentration left out as unconfirmed. Particulars: for Immobility period, Retest / Immobility period, Test: first 5 minutes, n = 10; for Immobility period, Test: test session before any treatment.

Another assay addresses T1, NEP (Rattus norvegicus, UniProt P07861).
T1 construct: incubations of membrane and fresh tissue slice preparations from nervous tissues; from tissue; host or cells: rat spinal cord (dorsal zone), fresh slices or 100 000 x g membrane fraction
T1 sequence (P07861 1-750): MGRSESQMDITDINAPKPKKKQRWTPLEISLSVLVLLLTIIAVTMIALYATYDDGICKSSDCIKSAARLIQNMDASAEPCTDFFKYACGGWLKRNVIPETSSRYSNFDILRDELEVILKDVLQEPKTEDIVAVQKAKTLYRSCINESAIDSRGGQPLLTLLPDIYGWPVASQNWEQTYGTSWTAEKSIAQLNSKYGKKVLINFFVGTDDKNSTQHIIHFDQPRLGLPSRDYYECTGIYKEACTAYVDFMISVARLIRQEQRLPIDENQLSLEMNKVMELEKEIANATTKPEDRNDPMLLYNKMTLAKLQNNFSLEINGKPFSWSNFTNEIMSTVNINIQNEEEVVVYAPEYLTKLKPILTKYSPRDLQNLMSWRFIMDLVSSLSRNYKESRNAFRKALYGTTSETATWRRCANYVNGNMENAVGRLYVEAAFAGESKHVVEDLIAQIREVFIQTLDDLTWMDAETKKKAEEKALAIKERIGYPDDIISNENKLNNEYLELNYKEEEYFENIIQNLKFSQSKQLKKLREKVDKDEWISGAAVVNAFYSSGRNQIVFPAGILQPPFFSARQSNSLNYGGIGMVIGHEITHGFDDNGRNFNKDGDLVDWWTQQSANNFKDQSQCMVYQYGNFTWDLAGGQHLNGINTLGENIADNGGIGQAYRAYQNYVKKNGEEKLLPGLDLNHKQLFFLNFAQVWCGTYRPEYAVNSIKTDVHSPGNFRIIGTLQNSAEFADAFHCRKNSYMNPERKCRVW
As to the kind of experiment: 3H-Substance P hydrolysis by rat spinal cord membrane preparations. The format is biochemical. The procedure: The organs dissected out and washed in ice-cold KRBG are homogenized at 4° C. in 10 volumes (vol./wt.) of 50 mM Tris/HCl buffered at pH 7.2, using a Teflon-glass homogenizer (3×5 sec.). A first centrifugation of 5 min. at 1000×g and 4° C. makes it possible to remove the tissular debris and the nuclei in the pellet. A second centrifugation of the supernatant at 100 000×g and 5° C. concentrates the membrane fraction into the pellet, which will be superficially washed three times with cold Tris/HCl buffer and resuspended in fresh buffer using a Kontes homogenizer, aliquoted and stored at -80° C. while waiting to be used as enzyme source, at least until three months. For the experiments of analysis of the NEP peptidase activity, an ex vivo model using incubations of membrane and fresh tissue slice preparations from nervous tissues that are known to be appropriate for exploring NEP peptidase activity: i.e. the dorsal zone of rat spinal cord, was first developed. The metabolism rate of the NEP-sensitive peptides was measured using the both NEP substrates involved in the signaling of the nociceptive response: the neuropeptides Met-enkephalin and Substance P. […] (NEN, 12.5-25 nM) were used. The objective was to measure the NEP-specific endoproteolysis of these substrates. […] The radioactivity of eluted and isolated compounds is determined by liquid scintillation spectrometry.

Where “and” joins values, the source holds several entries; their conditions need not be identical. Equal values may be shown once. Entries after “also recorded” stand apart in the source; their conditions may differ. Where a SMILES comes first, the peptide text is derived from it.

As for `N=C(N)NCCC[C@H](NC(=O)[C@@H]1CCCN1C(=O)[C@H](CC(N)=O)NC(=O)[C@H](Cc1c[nH]cn1)NC(=O)[C@@H](N)CCC(N)=O)C(=O)O` [SMR1-QHNPR, QHNPR] (H-QHNPR-OH; N-terminus and C-terminus assumed), the “Immobility period, Retest” value in the assay on male Wistar/AF EOPS rats (50 μg/kg i.v., 1440, 300, 5 min before the retest) was 141.20 ± 21.28; with male Wistar/AF EOPS rats (100 μg/kg i.v., 1440, 300, 5 min before the retest) it was 121.50 ± 17.47. For the same compound, the “Immobility period, Test” value in the assay on male Wistar/AF EOPS rats (FG-50 group, 50 μg/kg i.v.) was determined as 119.00 ± 13.79; in the assay on male Wistar/AF EOPS rats (FG-100 group, 100 μg/kg i.v.), 138.30 ± 11.03. The “change of period of immobility, retest compared with test” value in the assay on male Wistar/AF EOPS rats (dose of 100) is “reduce it”. Moreover, on NEP (3H-Substance P 12.5 nM, 10 min at 25° C., read-out: IC50 (concentration reducing by half the degradation of 3H-substance P) (converted)), the IC50 is ~100 nM and 100 nM. In addition, the “protection of Substance P / NEP inhibitory potency compared with reference inhibitors” value on NEP (FIG. 3-B) is “equivalent to that obtained with Phosphoramidon; also recorded: equivalent to that of two well-known NEP-specific inhibitors, Thiorphan and Phosphoramidon”.
